One compound from patent publication US20230331707A1, “PROGRAMMED CELL NECROSIS INHIBITOR, PREPARATION METHOD THEREFOR, AND USE THEREOF” (Shanghai Institute of Organic Chemistry, Chinese Academy of …, priority 2020, published 2023) can be followed below.

Data set [1] deals with FADD−/− Jurkat cells. As to the kind of experiment: Inhibition of TNF-induced programmed necrosis of FADD deficient Jurkat cells (Cell Titer-Glo viability). Type of data set: cell-based. The gist of the method:
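FADD-deficient human Jurkat T leukemia cells in log phase were adjusted to 2.5×10^5/mL and plated at 40 μl per well in 384-well plates. Compounds were added, with SM164 (50 nM) where used, for a 1 h pretreatment at 37° C. TNFα (50 ng/mL) was then added, and cells were incubated 14 h at 37° C, 5% CO2. Viability was read as ATP luminescence with Cell Titer-Glo after 30 min at room temperature, with unstimulated DMSO wells set as 100%. EC50 values were calculated in Prism Graphpad.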
A general note: In ATP-based viability assays light output follows the ATP content of the culture.

In another data set the test system is L929 cells. Briefly: Inhibition of TNF-induced programmed necrosis of L929 cells (Cell Titer-Glo viability). In kind it is cell-based, mouse. A digest of the protocol: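 Mouse L929 fibroblasts were diluted to 6.25×10^4/ml, plated at 40 μl per well in 384-well plates, and incubated 12 hours at 37° C., 5% CO2. Compounds were added, with SM164 (500 nM) for the combination arm, and pretreated 1 h before TNFα (500 ng/mL). After 14 h, viability was read by Cell Titer-Glo luminescence against unstimulated DMSO controls, and EC50 values were fitted in Prism Graphpad.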

A short description of data set [2]: Pharmacokinetic properties in mice. In kind it is in vivo. The protocol: The adopted biological test protocol was: drug metabolism test of the compound on the mouse in vivo.
In order to verify the […], a representative compound QY-10-40 was selected and the pharmacokinetic properties of the compound in mice (n=3) were tested using single administration by gavage (PO, 10 mg/kg) or intravenous injection (IV, 1 mg/kg).

In data set [3] the test system is RIPK1^K612R/K612R mutant mice. Briefly: Digestive system inflammation in RIPK1 K612R/K612R mutant mice. Type of data set: in vivo. Conditions: gavage 25 mg/kg, control Nec-1s 50 mg/kg. The source says: The adopted biological test scheme was: RIPK1^K612R/K612R mutant mice were used as model mice to test the effect of representative compound QY-10-40 or QY-13-19 on spontaneous intestinal inflammation.
K612R mutation leads to decreased in intracellular RIPK1 level but abnormal activation, making it sensitive to programmed necrosis and caspase-1 activation, and responding to TLRs signaling. RIPK1^K612R/K612R mice will appear responses such as age-dependent reduced RIPK1 expression and abnormal activation, spontaneous intestinal inflammation and splenomegaly.
Methods: The compounds to be tested were dissolved in 0.5% carboxymethyl cellulose according to the required concentration one day in advance, and sonicated overnight. Mice were gavaged in a volume of 0.1 ml/10 g body weight. Body weight was measured three times a week, and samples were collected at the end of the experiment. The effect of the compounds was calculated using Prism Graphpad statistical software.

The subject of data set [4] is FADD−/− Jurkat cells. Briefly: Inhibition of TNF-induced programmed necrosis of FADD deficient Jurkat cells (Cell Titer-Glo viability). Type of data set: cell-based. The settings on record: at 1000-fold effective inhibitory concentration (1 μM); FADD-deficient Jurkat cells or L929 cells.
A short description of data set [5]: Liver microsomal stability test, mouse. Type of data set: in vitro ADME. The source says: The adopted biological test protocol was: testing the half-life of the compound in human- or mouse-derived liver microsomes.
Liver microsomes contain many enzymes involved in drug metabolism, especially cytochrome P-450, and therefore it is one of the major tissues involved in drug metabolism in living organisms. There are some correlations between the stability of the compound in liver microsomes and the pharmacogenetic stability thereof in vivo. Therefore, the relative stability of compounds in vivo can be roughly predicted by testing the half-life of different compounds in human- or mouse-derived liver microsomes. The specific methods were as follows:
Methods: 0.75 μL of 0.5 mM samples (compounds to be tested and control verapamil), 9.38 μL of 20 mg/mL liver microsomes (Human and Mouse) were taken and added to 239.88 μL PBS (on ice), and divided into 30 μL/tube samples respectively. The samples were incubated at 37° C. in a constant temperature water bath for 5 min, and then all samples were taken out. At zero-time, control group was added with 90 μL of ice acetonitrile first, and then added with 15 μL of 3 mM NADPH solution sequentially, and incubated at 37° C. in a constant temperature water bath. The corresponding samples were taken out after 5 min, 10 min, 20 min, 30 min and 60 min, respectively, and quenched by adding 90 μL of ice acetonitrile. All samples were centrifuged at 10000 rpm for 10 min, and the supernatants were taken and placed in a liquid phase vial waiting for LC-MS analysis.
Background: Liver microsomes are vesicles of endoplasmic reticulum, rich in cytochrome P450 enzymes.

Where two headings read alike, the source gives them in different places. Where only a bound is given, the exact number is not on record here.

For `Cn1ncc(C(=O)NCc2ccc(-n3cnc4c(N)ncnc43)cc2)c1Cc1ccccc1` [QY-10-40], the “concentration that essentially completely inhibits TNFα-induced programmed necrosis” value with FADD−/− Jurkat cells [1] (FADD-deficient Jurkat cells) and in the data set with L929 cells (L929 cells) was “above 1 nM” each time. The EC50 in the data set on FADD−/− Jurkat cells [1] (FADD−/− Jurkat cells, stimulated with TNFα + SM164, read-out: EC50 (μM) FADD−/− Jurkat cells (human) TNFα + SM164) is 0.06 nM; with FADD−/− Jurkat cells [1] (Homo sapiens, Jurkat, read-out: EC50 (μM) FADD−/− Jurkat cells (human) TNFα), 0.001 nM; with L929 cells (L929 cells, stimulated with TNFα + SM164, read-out: EC50 (μM) L929 cells (mouse) TNFα + SM164), 0.00145 µM; in the data set with L929 cells (L929 cells, stimulated with TNFα alone, read-out: EC50 (μM) L929 cells (mouse) TNFα) it was 0.00048 µM. Besides, in the data set on FADD−/− Jurkat cells [1] (human FADD-deficient Jurkat cells, TNFα alone or in combination with SM164), the “activity of inhibition of programmed necrosis compared with GSK2982772” value is on record as “stronger activity”. Further, the “inhibition of programmed necrosis (in words)” value with L929 cells (mouse-derived L929 cells) is given as “excellently inhibit the occurrence of programmed necrosis”. Further, in data set [2] (PO 10 mg/kg, IV 1 mg/kg), the “bioavailability (F) (in words)” value was “better bioavailability”. In addition, the “half-life (T1/2) (in words)” value in data set [2] (PO 10 mg/kg, IV 1 mg/kg) is “better”. Moreover, the “blood concentrations for most of the time within 24 h” value in data set [2] (gavage 10 mg/kg, single dose, 10 nM = effective inhibitory concentration) is given as greater than 10 nM. For the same compound, in data set [2] (single dose (PO 10 mg/kg or IV 1 mg/kg)), the “time to peak (in words)” value is “rapidly reach the peak”. The “effect on body weight and spleen coefficient” value in data set [3] is “can inhibit the effect of the digestive system inflammation”. In addition, the cytotoxicity entry in the data set with FADD−/− Jurkat cells [4] was “does not exhibit any cytotoxicity”. Besides, in data set [5] (mouse derived liver microsomes), the “stability in liver microsomes (in words)” value was “good stability”. In data set [5] (mouse liver microsomes, NADPH, 37° C.), the “T1/2 (min) Mouse” value is 69.3 min.
